Results as given in patent US20180289009A1 (Synexis LLC, priority 2015, published 2018).
Values joined by “and” are separate entries in the source; they are usually repeats but may differ in a detail not shown here. Identical values can stand only once. Like-named read-outs stand apart in the source and are kept apart here.

Legend:
[1] = test system: Aspergillus Niger (vegetative); details: vegetative form; DHP gas 0.3 ppm; 2.2 × 10^4 per inch^2
[2] = test system: Geobacillus stearothermophilus spores
MS2 bacteriophage = details: DHP gas 0.6 ppm; 1.25 × 10^3 per inch^2
H1N1 virus = details: DHP gas 0.6 ppm, 1.12 × 10^6 per inch^2
Enterococcus faecalis = details: DHP gas 0.5-1.0 ppm
[3] = test system: mold spoilage on fresh strawberries; details: DHP gas 0.1-0.4 ppm; 5 days; 73-78° F.; humidity 40-65%
Procedure: Experiments are conducted in a 1584 cubic foot test room. The temperature of test room is maintained between 73° F. and 78° F., and the humidity of the ambient air is between 40% and 65%. […] After the 5-day incubation period, the strawberries are evaluated for the presence of mold spoilage.

Streptococcus pyogenes = details: DHP gas 0.6 ppm; 5 × 10^4 per inch^2
Feline calicivirus = details: DHP gas 0.6 ppm; ~1 × 10^8 per inch^2
C. difficile (spores) = details: DHP gas 0.5-1.0 ppm, 3.78 × 10^6 per inch^2
[4] = Log2 spore strip, 72 hours exposure to DHP gas at about 0.3 ppm
[5] = Log 2 spore strip, 144 hours exposure to DHP gas at about 0.3 ppm
[6] = Log 2 spore strip, 216 hours exposure to DHP gas at about 0.3 ppm
[7] = Log2 spore strip, 288 hours exposure to DHP gas at about 0.3 ppm
[8] = Log3 spore strip, 40 hours exposure to DHP gas at about 0.3 ppm
[9] = Log3 spore strip, 47.75 hours exposure to DHP gas at about 0.3 ppm
[10] = Log3 spore strip, 60.2 hours exposure to DHP gas at about 0.3 ppm
[11] = Log3 spore strip, 67.5 hours exposure to DHP gas at about 0.3 ppm
[12] = Log3 spore strip, 100 hours exposure to DHP gas at about 0.3 ppm
[13] = Log 3 spore strip, 144 hours exposure to DHP gas at about 0.3 ppm
[14] = Log 3 spore strip, 216 hours exposure to DHP gas at about 0.3 ppm
[15] = Log4 spore strip, 121.4 hours exposure to DHP gas at about 0.3 ppm
[16] = Log4 spore strip, 192 hours exposure to DHP gas at about 0.3 ppm
[17] = Log 4 spore strip, 216 hours exposure to DHP gas at about 0.3 ppm
[18] = Log4 spore strip, 223.5 hours exposure to DHP gas at about 0.3 ppm
[19] = Log4 spore strip, 288 hours exposure to DHP gas at about 0.3 ppm

OO [DHP gas, hydrogen peroxide]
Time to 90% reduction [1]: 7 h
Biological Change [2, 4]: turbidity
Color Change within 24 hour incubation [2, 4]: light yellow
Time of Change [2, 4]: 15 h
Color Change within 24 hour incubation [2, 5]: very dark orange
Time of Change [2, 5]: 22 h
Color Change within 24 hour incubation ([2]; Log 2 spore strip, 166.5 hours exposure to DHP gas at about 0.3 ppm): may have changed
Biological Change [2, 6]: no turbidity
Color Change within 24 hour incubation [2, 6]: very dark orange
Time of Change [2, 6]: 22 h
Biological Change [2, 7]: no turbidity
Color Change within 24 hour incubation [2, 7]: very light orange
Time of Change [2, 7]: 17 h
Biological Change [2, 8]: Heavy turbidity
Color Change within 24 hour incubation [2, 8]: + Light orange
Color Change within 24 hour incubation ([2]; Log3 spore strip, 42 hours exposure to DHP gas at about 0.3 ppm): +
Color Change within 24 hour incubation ([2]; Log3 spore strip, 45.5 hours exposure to DHP gas at about 0.3 ppm): +
Biological Change [2, 9]: Less turbidity
Color Change within 24 hour incubation [2, 9]: + Dark orange
Biological Change [2, 10]: Heavy turbidity
Color Change within 24 hour incubation [2, 10]: +
Color Change within 24 hour incubation ([2]; Log3 spore strip, 64.2 hours exposure to DHP gas at about 0.3 ppm): +
Color Change within 24 hour incubation ([2]; Log3 spore strip, 64.5 hours exposure to DHP gas at about 0.3 ppm): +
Biological Change [2, 11]: Almost no turbidity
Color Change within 24 hour incubation [2, 11]: +
Color Change within 24 hour incubation ([2]; Log3 spore strip, 70 hours exposure to DHP gas at about 0.3 ppm): +
Color Change within 24 hour incubation ([2]; Log3 spore strip, 85.1 hours exposure to DHP gas at about 0.3 ppm): +
Color Change within 24 hour incubation ([2]; Log3 spore strip, 89 hours exposure to DHP gas at about 0.3 ppm): +
Color Change within 24 hour incubation [2, 12]: +
Time of Change [2, 12]: 16 h and 22 to 24 h
Biological Change [2, 13]: no turbidity
Color Change within 24 hour incubation [2, 13]: very light orange
Time of Change [2, 13]: 16.5 h
Color Change within 24 hour incubation ([2]; Log 3 spore strip, 166.5 hours exposure to DHP gas at about 0.3 ppm): −
Biological Change [2, 14]: no turbidity
Color Change within 24 hour incubation [2, 14]: very dark orange
Time of Change [2, 14]: 22 h
Biological Change [2, 15]: almost no turbidity
Color Change within 24 hour incubation [2, 15]: −
Time of Change [2, 15]: 8 to 15 h and 15 h
Time of Change ([2]; Log4 spore strip, 144 hours exposure to DHP gas at about 0.3 ppm): 17 h and 16.5 h
Color Change within 24 hour incubation ([2]; Log 4 spore strip, 166.5 hours exposure to DHP gas at about 0.3 ppm): −
Color Change within 24 hour incubation ([2]; Log4 spore strip, 168 hours exposure to DHP gas at about 0.3 ppm): −
Color Change within 24 hour incubation [2, 16]: −
Time of Change [2, 16]: 15 h
Biological Change [2, 17]: no turbidity
Color Change within 24 hour incubation [2, 17]: very dark orange
Time of Change [2, 17]: 22 h
Biological Change [2, 18]: no turbidity
Time of Change [2, 18]: 14 h and 22 h
Biological Change [2, 19]: no turbidity
Color Change within 24 hour incubation [2, 19]: darker orange
Time of Change [2, 19]: 17 h
Time to 90% reduction (MS2 bacteriophage): <4 h
Time to 90% reduction (H1N1 virus): less than 30 minutes
Time to 90% reduction (H1N1 virus; listed as DHP Gas): 22.9 min
Time to 90% reduction (Enterococcus faecalis): <2 h
Mold spoilage after 5-day incubation [3]: no signs of mold spoilage
Time to 90% reduction (MRSA; soil load not stated): under 5 hours
Time to 90% reduction (MRSA; with soil load, DHP gas 0.6 ppm, 0.5 × 10^5 per inch^2): 4.6 h
Time to 90% reduction (MRSA; without soil load, DHP gas 0.6 ppm, 1 × 10^5 per inch^2): 2.6 h
Time to 90% reduction (Streptococcus pyogenes): <4 h
Time to 90% reduction (Feline calicivirus): <2 h
Reduction at 24 hours (C. difficile (spores)): 70.4% at 24
